This experiment has as its target T1, recombinant human PDE 10A1 (Homo sapiens, UniProt Q9Y233).
T1 construct: made in house; host or cells: Sf9 insect cells, baculoviral system
The experiment in a line: PDE10 biochemical assay (two-step Thompson and Appleman method or SPA). On the procedure:
After the appropriate incubation time, the reaction is terminated by heating. The mixture is then subjected to treatment with snake venom phosphatase. […] IC50 values can be calculated by performing the experiment at several concentrations using standard graphical means. A detailed description of the actual technique used for IC50 assays as set forth in following Examples.
The phosphodiesterase (PDE) assay was performed using recombinant human PDE 1A3, 2A3, 3 catalytic region, 4 catalytic region, 5 catalytic region, 7A, 8A, 9A2, 10A1 and 11A1 enzymes expressed in a baculoviral system using Sf9 cells. PDE activity was measured using a modification of the two-step method of Thompson and Appleman described above which was adapted for 96 well plate format. […] Reactions were initiated with enzyme and incubated with (^3H)-substrate and substance for 20 minutes at 30° C. The reaction was terminated by denaturing the enzyme (heating the reaction to 70° C. for 2 minutes). The reaction was then cooled at 4° C. for 10 minutes before the addition of snake venom (Crotalus atrox, 0.2 mg/ml) for 10 minutes at 30° C., thus allowing non-specific hydrolysis of the tritiated substrate. Separation of the remaining unhydrolysed cyclic nucleotide was achieved by a batch binding of the mixture to activated Dowex (200 μl) anion exchange resin. The anion exchange resin bound the charged nucleotides, leaving only hydrolysed (^3H) substrate in the soluble fraction. The soluble fraction (50 μl) was then added to microscint-20 (200 μl) and counted on a Top Count Plate reader. Radioactivity units were plotted against inhibitor concentration and IC50 values obtained using Graph Pad Prism software.
Alternatively, phosphodiesterase activity was measured by scintillation proximity assay (SPA) with [^3H]-cGMP as substrate. Purified PDE10 was diluted and stored in 25 mM Tris-Cl (pH 8.0)/100 mM NaCl/0.05% Tween 20/50% glycerol/3 mM DTT. Assays contained (final concentrations): 50 mM Tris-Cl (pH 7.5)/8.3 mM MgCl2/1.7 mM EGTA/0.5 mg/ml BSA/5% DMSO and 2 ng PDE10 in a final volume of 0.1 mL. Inhibition was evaluated at 8 concentrations in duplicate. Reactions were initiated by addition of enzyme and were terminated after 20 minutes at 30° C. by the addition of 50 μl of SPA beads containing Zn^++. The mixture was shaken, allowed to settle for 3 hours, and counted in a Wallac plate counter. Results (net cpm) were fitted to a four parameter logistic model using Excel Solver®.

[1] abbreviates: PDE10 inhibition, read-out: IC50.

A word on the IC50: it is the concentration that inhibits the measured activity by half.

Where two headings read alike, the source gives them in different places.

T1 sequence (Q9Y233 1-779 isoform Q9Y233-1): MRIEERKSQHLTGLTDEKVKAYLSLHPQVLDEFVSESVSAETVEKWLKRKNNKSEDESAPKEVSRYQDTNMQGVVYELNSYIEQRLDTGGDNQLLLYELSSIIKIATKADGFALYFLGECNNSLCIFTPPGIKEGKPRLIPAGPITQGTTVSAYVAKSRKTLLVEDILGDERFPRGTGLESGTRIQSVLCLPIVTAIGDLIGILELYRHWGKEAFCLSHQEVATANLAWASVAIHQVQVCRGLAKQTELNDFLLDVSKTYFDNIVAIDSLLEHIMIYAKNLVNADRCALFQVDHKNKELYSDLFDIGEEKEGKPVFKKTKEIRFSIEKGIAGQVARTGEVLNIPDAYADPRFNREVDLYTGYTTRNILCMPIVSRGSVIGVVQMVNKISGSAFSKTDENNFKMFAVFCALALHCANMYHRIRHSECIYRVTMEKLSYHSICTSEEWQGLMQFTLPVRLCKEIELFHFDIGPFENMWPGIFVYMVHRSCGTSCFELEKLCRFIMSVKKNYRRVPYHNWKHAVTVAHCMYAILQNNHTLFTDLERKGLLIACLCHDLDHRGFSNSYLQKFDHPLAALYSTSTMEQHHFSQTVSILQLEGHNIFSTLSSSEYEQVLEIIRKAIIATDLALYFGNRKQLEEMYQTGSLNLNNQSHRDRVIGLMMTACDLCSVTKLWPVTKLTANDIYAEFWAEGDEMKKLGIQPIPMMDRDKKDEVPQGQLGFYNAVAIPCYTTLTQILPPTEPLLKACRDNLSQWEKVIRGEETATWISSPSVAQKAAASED

For `COc1cc(/C=N/NC(=O)C(OC)c2ccc3ccccc3c2)cc(OC)c1OC` (stereo not drawn) [Compound 1-1, (E)-2-Methoxy-2-(naphthalen-2-yl)-N′-(3,4,5-trimethoxybenzylidene)acetohydrazide], the IC50 under setting [1] is ≤ 1000 nM.
For the compound `COc1cc(/C=N/NC(=O)C(c2ccccc2)c2ccccc2)cc(OC)c1OC` [Compound 3-1, (E)-2,2-Diphenyl-N′-(3,4,5-trimethoxybenzylidene)acetohydrazide], under setting [1], the IC50 is ≤ 1000 nM.
For the compound `COc1ccc(/C=N/NC(=O)C(SC)c2ccccc2)cc1OC` (stereo not drawn) [Compound 4-1, (E)-N′-(3,4-Dimethoxybenzylidene)-2-(methylthio)-2-phenylacetohydrazide], the half-maximal inhibitory concentration (IC50) under setting [1] was ≤ 1000 nM.
Still for that read-out and setting: with `COc1cc(/C=N/N=C(\OC(=O)C(C)(C)C)C(OC)c2cccc3ccccc23)cc(OC)c1OC` (stereo not drawn) [Compound 5-1, (1Z, N′E)-2-Methoxy-2-(naphthalen-1-yl)-N′-(3,4,5-trimethoxybenzylidene)acetohydrazonic pivalic anhydride] the figure was ≤ 1000 nM.
Same read-out and setting: as for `COc1cc(/C=N/NC(=O)C(OC)c2cccc3ncccc23)cc(OC)c1OC` (stereo not drawn) [Compound 6-1, (E)-2-methoxy-2-(quinolin-5-yl)-N′-(3,4,5-trimethoxybenzylidene)acetohydrazide], the figure is ≤ 1000 nM; as for `COc1cc(/C=N/NC(=O)C(OC)c2ccc(N(C)C)cc2)cc(OC)c1OC` (stereo not drawn) [Compound 7-1, (E)-2-(4-(Dimethylamino)phenyl)-2-methoxy-N′-(3,4,5-trimethoxybenzylidene)acetohydrazide], ≤ 1000 nM.
Still for that read-out and setting: as for `COc1cc(/C=N/NC(=O)C(OC)c2cc3ccccc3s2)cc(OC)c1OC` (stereo not drawn) [Compound 8-1, (E)-2-(Benzo[b]thiophen-2-yl)-2-methoxy-N′-(3,4,5-trimethoxybenzylidene)acetohydrazide], the figure is ≤ 1000 nM; as for `COc1ccc(/C=N/NC(=O)C(c2ccccc2)C(C)C)cc1OC` (stereo not drawn) [Compound 9-1, (E)-N′-(3,4-Dimethoxybenzylidene)-3-methyl-2-phenylbutanehydrazide], ≤ 1000 nM; as for `COc1cc(/C=N/N(CC(F)(F)F)C(=O)C(OC)c2ccc(-n3cccn3)cc2)cc(OC)c1Br` (stereo not drawn) [Compound 11-1, (E)-2-(4-(1H-pyrazol-1-yl)phenyl)-N′-(4-bromo-3,5-dimethoxybenzylidene)-2-methoxy-N-(2,2,2-trifluoroethyl)acetohydrazide], ≤ 1000 nM.
In the case of `COc1cc(/C=N/NC(=O)C(OC)c2ccc(F)cc2)cc(OC)c1Br` (stereo not drawn) [Compound 12-1], the IC50 under setting [1] was ≤ 1000 nM.
Still for that read-out and setting: with `CCOc1cc(/C=N/NC(=O)C(OC)c2ccc(Cl)cc2)cc(Br)c1OC` (stereo not drawn) [Compound 12-2] the figure was ≤ 1000 nM; with `COc1cc(/C=N/NC(=O)C(OC)c2ccc(F)cc2)cc(Br)c1OC` (stereo not drawn) [Compound 12-3], ≤ 1000 nM.
For the compound `COc1cc(/C=N/NC(=O)C(OC)c2ccc(Cl)cc2)cc(Br)c1OC` (stereo not drawn) [Compound 12-4], under setting [1], the half-inhibitory concentration (IC50) was ≤ 1000 nM.
Same read-out and setting: with `CCOc1cc(/C=N/NC(=O)C(OC)c2ccc(Cl)cc2)cc(Cl)c1OC` (stereo not drawn) [Compound 12-5] the figure was ≤ 1000 nM; with `COc1cc(/C=N/NC(=O)C(OC)c2ccc(Cl)cc2)cc(Cl)c1OC` (stereo not drawn) [Compound 12-6], ≤ 1000 nM.
With `CCOc1cc(/C=N/NC(=O)C(OC)c2ccc(Cl)cc2)ccc1OC` (stereo not drawn) [Compound 12-7], the IC50 is ≤ 1000 nM.
As for `COc1cc(/C=N/NC(=O)C(OC)c2ccc(Cl)cc2)ccc1C` (stereo not drawn) [Compound 12-8], under setting [1], the IC50 is ≤ 1000 nM.
Consider `COc1ccc(/C=N/NC(=O)C(OC)c2ccc(Cl)cc2)cc1OC` (stereo not drawn) [Compound 12-10], for which the 50% inhibitory concentration (IC50) under setting [1] was ≤ 1000 nM.
The same measure, in the same setting: as for `COc1cc(/C=N/NC(=O)C(OC)c2ccc(Cl)cc2)cc(OC)c1Br` (stereo not drawn) [Compound 12-12], the figure is ≤ 1000 nM.
On the same count and under the same terms, as for `COc1cc(/C=N/NC(=O)C(OC)c2cccc3ccccc23)cc(OC)c1OC` (stereo not drawn) [Compound 12-13], the figure is ≤ 1000 nM; as for `COc1cc(/C=N/NC(=O)C(OC)c2ccc(Cl)cc2)cc(C#N)c1OC` (stereo not drawn) [Compound 12-14], ≤ 1000 nM.
Still for that read-out and setting: with `COc1cc(/C=N/NC(=O)C(OC)c2ccc(Cl)cc2)cc(OC)c1OC` (stereo not drawn) [Compound 12-15] the figure was ≤ 1000 nM; with `COc1ccc(/C=N/NC(=O)C(OC)c2ccc3ccccc3c2)cc1OC(F)F` (stereo not drawn) [Compound 12-16], ≤ 1000 nM.
In the case of `COc1cc(/C=N/NC(=O)C(OC)c2ccccc2)cc(OC)c1OC` (stereo not drawn) [Compound 12-17], under setting [1], the concentration for half-maximal inhibition (IC50) was ≤ 1000 nM.
Regarding `COc1ccc(/C=N/NC(=O)C(OC)c2ccc3ccccc3c2)cc1OC1CCCC1` (stereo not drawn) [Compound 12-18], under setting [1], the IC50 is ≤ 1000 nM.
Take `COc1ccc(C(OC)C(=O)N/N=C/c2ccc(OC)c(OC)c2)cc1` (stereo not drawn) [Compound 12-19]: the IC50 under setting [1] was ≤ 1000 nM.
For `COc1cc(/C=N/NC(=O)C(OC)c2ccccc2)ccc1C` (stereo not drawn) [Compound 12-20], under setting [1], the half-inhibitory concentration (IC50) was ≤ 1000 nM.
With `COc1cc(/C=N/NC(=O)C(OC)c2ccc(Cl)cc2)ccc1C#N` (stereo not drawn) [Compound 12-22], the IC50 under setting [1] was ≤ 1000 nM.
On the same count and under the same terms, with `COc1ccc(/C=N/NC(=O)C(OC)c2ccc3ccccc3c2)cc1OC` (stereo not drawn) [Compound 12-23] the figure was ≤ 1000 nM.
For `COc1cc(/C=N/NC(=O)C(OC)c2ccccc2)cc(OC)c1O` (stereo not drawn) [Compound 12-24], the half-inhibitory concentration (IC50) under setting [1] is ≤ 1000 nM.
Still for that read-out and setting: as for `COc1cc(/C=N/NC(=O)C(OC)c2ccccc2)cc(OC)c1` (stereo not drawn) [Compound 12-25], the figure is ≤ 1000 nM.
The same measure, in the same setting: as for `CCOc1ccc(/C=N/NC(=O)C(OC)c2ccccc2)cc1OCC` (stereo not drawn) [Compound 12-26], the figure is ≤ 1000 nM; as for `COc1cc(/C=N/NC(=O)C(Oc2ccccc2)c2ccccc2)cc(OC)c1OC` (stereo not drawn) [Compound 12-41], ≤ 1000 nM.
For the compound `COc1cc(/C=N/NC(=O)C(OC)c2cc3ccccc3s2)cc(Cl)c1OC` (stereo not drawn) [Compound 12-42], the IC50 under setting [1] is ≤ 1000 nM.
As to `COCCOC(C(=O)N/N=C/c1cc(OC)c(Br)c(OC)c1)c1ccc2ccccc2c1` (stereo not drawn) [Compound 12-43], under setting [1], the half-inhibitory concentration (IC50) was ≤ 1000 nM.
Consider `COCCOC(C(=O)N/N=C/c1cc(OC)c(OC)c(OC)c1)c1ccc2ccccc2c1` (stereo not drawn) [Compound 12-45], for which the IC50 under setting [1] is ≤ 1000 nM.
For the compound `COCCOC(C(=O)N/N=C/c1cc(Br)c(OC)c(OC)c1)c1ccc2ccccc2c1` (stereo not drawn) [Compound 12-48], the IC50 under setting [1] was ≤ 1000 nM.
On the same count and under the same terms, with `COc1cc(/C=N/NC(=O)C(OC)c2ccnc3ccccc23)cc(OC)c1OC` (stereo not drawn) [Compound 12-56] the figure was ≤ 1000 nM; with `COc1cc(/C=N/NC(=O)C(OC)c2ccnc3ccccc23)cc(Br)c1OC` (stereo not drawn) [Compound 12-58], ≤ 1000 nM; with `CCOC(C(=O)N/N=C/c1cc(OC)c(OC)c(OC)c1)c1cccc2ncccc12` (stereo not drawn) [Compound 12-59], ≤ 1000 nM.
Still for that read-out and setting: with `COc1cc(/C=N/NC(=O)C(OC)c2cnc3ccccc3c2)cc(OC)c1OC` (stereo not drawn) [Compound 12-61] the figure was ≤ 1000 nM.
Same read-out and setting: as for `COc1cc(/C(C)=N/NC(=O)C(OC)c2ccccc2)cc(OC)c1OC` (stereo not drawn) [Compound 12-69], the figure is ≤ 1000 nM.
Regarding `COc1ccc(/C=N/N(C)C(=O)C(OC)c2ccccc2)cc1OC` (stereo not drawn) [Compound 12-70, (E)-N′-(3,4-Dimethoxybenzylidene)-2-methoxy-N-methyl-2-phenylacetohydrazide], the IC50 was ≤ 1000 nM.
As for `CCC(C(=O)N/N=C/c1ccc(OC)c(OC)c1)c1ccccc1` (stereo not drawn) [Compound 12-71], the IC50 under setting [1] was ≤ 1000 nM.
The same measure, in the same setting: as for `COc1cc(Cl)c(/C=N/NC(=O)C(OC)c2ccc3c(c2)OCCO3)cc1OC` (stereo not drawn) [Compound 12-83], the figure is ≤ 1000 nM; as for `CCOC(C(=O)N/N=C/c1cc(OC)c(Br)c(OC)c1)c1ccc2c(c1)OCCN2C` (stereo not drawn) [Compound 12-84], ≤ 1000 nM.
On the same count and under the same terms, as for `CCOC(C(=O)N/N=C/c1cc(Cl)c(OC)c(OC)c1)c1ccc2c(c1)OCCN2C` (stereo not drawn) [Compound 12-85], the figure is ≤ 1000 nM; as for `CCOC(C(=O)N/N=C/c1cc(Br)c(OC)c(OC)c1)c1ccc2c(c1)OCCN2C` (stereo not drawn) [Compound 12-86], ≤ 1000 nM; as for `CCOC(C(=O)N/N=C/c1cc(OC)c(Br)c(OC)c1)c1ccc2c(c1)OCCO2` (stereo not drawn) [Compound 12-87], ≤ 1000 nM.
As for `CCOC(C(=O)N/N=C/c1cc(OC)c(OC)c(OC)c1)c1ccc2c(c1)OCCO2` (stereo not drawn) [Compound 12-88], under setting [1], the IC50 was ≤ 1000 nM.
Same read-out and setting: as for `COc1cc(/C=N/NC(=O)Cc2ccccc2)cc(OC)c1OC` [Compound 12-89], the figure is ≤ 1000 nM; as for `COc1ccc(/C=N/NC(=O)Cc2ccc(OC)c(OC)c2)cc1OC` [Compound 12-90], ≤ 1000 nM; as for `COc1cc(/C=N/NC(=O)C(OCCN(C)C)c2ccc3c(c2)OCO3)cc(OC)c1Br` (stereo not drawn) [Compound 12-109], ≤ 1000 nM.
Take `COc1cc(/C=N/NC(=O)C(OC)c2ccc3c(c2)OCO3)cc(Br)c1OC` (stereo not drawn) [Compound 12-116]: the IC50 under setting [1] is ≤ 1000 nM.

These data come from patent publication US9783521B2, “PDE10 inhibitors and related compositions and methods” (Omeros Corporation, priority 2008, dated 2017).
